{
  "source": "ChEMBL document CHEMBL4390652",
  "about": "“Design, biological evaluation and X-ray crystallography of nanomolar multifunctional ligands targeting simultaneously acetylcholinesterase and glycogen synthase kinase-3” (Eur J Med Chem, 2019)",
  "key": {"[1]": {"biological_target": "Serine/threonine-protein kinase TAO1 (Homo sapiens) (UniProt Q7L7X3)", "test": "Binding affinity to wild-type human partial length TAOK1 (M1 to A320 residues) expressed in mammalian expression system assessed as residual binding level at 10 uM by Kinomescan method relative to control"}, "[2]": {"biological_target": "Death-associated protein kinase 3 (Homo sapiens) (UniProt O43293)", "sequence (O43293 whole entry, looked up, the tested form may be a part)": "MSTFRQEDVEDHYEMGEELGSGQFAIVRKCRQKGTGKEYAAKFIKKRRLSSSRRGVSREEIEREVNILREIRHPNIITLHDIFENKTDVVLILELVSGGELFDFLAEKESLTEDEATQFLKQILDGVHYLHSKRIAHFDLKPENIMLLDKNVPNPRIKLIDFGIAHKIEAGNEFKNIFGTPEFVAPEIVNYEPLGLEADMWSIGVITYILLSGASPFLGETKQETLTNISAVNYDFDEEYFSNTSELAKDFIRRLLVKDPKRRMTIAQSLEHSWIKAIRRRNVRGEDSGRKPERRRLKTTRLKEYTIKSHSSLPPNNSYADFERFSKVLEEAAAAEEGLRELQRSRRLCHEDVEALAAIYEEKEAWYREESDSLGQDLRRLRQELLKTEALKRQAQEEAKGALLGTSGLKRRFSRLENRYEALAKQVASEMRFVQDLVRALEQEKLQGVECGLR", "test": "Binding affinity to wild-type human partial length DAPK3 (M1 to A277 residues) expressed in bacterial expression system assessed as residual binding level at 10 uM by Kinomescan method relative to control"}, "[3]": {"biological_target": "High affinity nerve growth factor receptor (Homo sapiens) (UniProt P04629)", "test": "Binding affinity to wild-type human partial length TRKA (G475 to G790 residues) expressed in mammalian expression system assessed as residual binding level at 10 uM by Kinomescan method relative to control"}, "[4]": {"biological_target": "Receptor tyrosine-protein kinase erbB-3 (Homo sapiens) (UniProt P21860)", "test": "Binding affinity to wild-type human partial length ERBB3 (G684 to A987 residues) expressed in mammalian expression system assessed as residual binding level at 10 uM by Kinomescan method relative to control"}, "[5]": {"biological_target": "Receptor-interacting serine/threonine-protein kinase 2 (Homo sapiens) (UniProt O43353)", "test": "Binding affinity to wild-type human partial length RIPK2 (M1 to K310 residues) expressed in bacterial expression system assessed as residual binding level at 10 uM by Kinomescan method relative to control"}, "[6]": {"biological_target": "Serine/threonine-protein kinase PLK4 (Homo sapiens) (UniProt O00444)", "test": "Binding affinity to wild-type human partial length PLK4 (M1 to S273 residues) expressed in mammalian expression system assessed as residual binding level at 10 uM by Kinomescan method relative to control"}, "[7]": {"tested_on": "Phosphatidylinositol 4,5-bisphosphate 3-kinase catalytic subunit alpha isoform (Homo sapiens), P42336 [E542K]", "test": "Binding affinity to human partial length PIK3CA E542K mutant (R108 to N1068 residues) expressed in mammalian expression system assessed as residual binding level at 10 uM by Kinomescan method relative to control"}, "[8]": {"biological_target": "Serine/threonine-protein kinase NLK (Homo sapiens) (UniProt Q9UBE8)", "sequence (Q9UBE8 whole entry, the tested form may be a part)": "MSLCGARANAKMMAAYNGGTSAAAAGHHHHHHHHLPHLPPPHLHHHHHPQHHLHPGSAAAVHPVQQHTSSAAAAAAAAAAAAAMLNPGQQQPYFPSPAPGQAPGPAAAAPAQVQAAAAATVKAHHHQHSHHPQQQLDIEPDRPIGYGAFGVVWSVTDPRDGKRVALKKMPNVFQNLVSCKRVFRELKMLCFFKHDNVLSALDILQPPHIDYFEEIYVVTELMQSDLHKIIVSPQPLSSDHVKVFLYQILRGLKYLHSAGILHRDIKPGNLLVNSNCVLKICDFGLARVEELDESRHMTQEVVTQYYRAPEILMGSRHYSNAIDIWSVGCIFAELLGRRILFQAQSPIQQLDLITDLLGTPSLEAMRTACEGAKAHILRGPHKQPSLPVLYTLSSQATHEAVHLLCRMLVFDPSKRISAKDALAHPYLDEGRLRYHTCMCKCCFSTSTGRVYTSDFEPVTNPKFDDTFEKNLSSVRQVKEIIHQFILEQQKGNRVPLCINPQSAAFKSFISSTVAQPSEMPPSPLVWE", "test": "Binding affinity to wild-type human full length NLK (M13 to E527 residues) expressed in bacterial expression system assessed as residual binding level at 10 uM by Kinomescan method relative to control"}, "[9]": {"biological_target": "Fibroblast growth factor receptor 1 (Homo sapiens) (UniProt P11362)", "test": "Binding affinity to wild-type human partial length FGFR1 (P357 to V669 residues) expressed in bacterial expression system assessed as residual binding level at 10 uM by Kinomescan method relative to control"}, "[10]": {"biological_target": "Tyrosine-protein kinase receptor Tie-1 (Homo sapiens) (UniProt P35590)", "test": "Binding affinity to wild-type human partial length TIE1 (T819 to A1138 residues) expressed in bacterial expression system assessed as residual binding level at 10 uM by Kinomescan method relative to control"}, "[11]": {"tested_on": "Mast/stem cell growth factor receptor Kit (Homo sapiens), P10721 [L576P]", "sequence (P10721 whole entry L576P, the tested form may be a part)": "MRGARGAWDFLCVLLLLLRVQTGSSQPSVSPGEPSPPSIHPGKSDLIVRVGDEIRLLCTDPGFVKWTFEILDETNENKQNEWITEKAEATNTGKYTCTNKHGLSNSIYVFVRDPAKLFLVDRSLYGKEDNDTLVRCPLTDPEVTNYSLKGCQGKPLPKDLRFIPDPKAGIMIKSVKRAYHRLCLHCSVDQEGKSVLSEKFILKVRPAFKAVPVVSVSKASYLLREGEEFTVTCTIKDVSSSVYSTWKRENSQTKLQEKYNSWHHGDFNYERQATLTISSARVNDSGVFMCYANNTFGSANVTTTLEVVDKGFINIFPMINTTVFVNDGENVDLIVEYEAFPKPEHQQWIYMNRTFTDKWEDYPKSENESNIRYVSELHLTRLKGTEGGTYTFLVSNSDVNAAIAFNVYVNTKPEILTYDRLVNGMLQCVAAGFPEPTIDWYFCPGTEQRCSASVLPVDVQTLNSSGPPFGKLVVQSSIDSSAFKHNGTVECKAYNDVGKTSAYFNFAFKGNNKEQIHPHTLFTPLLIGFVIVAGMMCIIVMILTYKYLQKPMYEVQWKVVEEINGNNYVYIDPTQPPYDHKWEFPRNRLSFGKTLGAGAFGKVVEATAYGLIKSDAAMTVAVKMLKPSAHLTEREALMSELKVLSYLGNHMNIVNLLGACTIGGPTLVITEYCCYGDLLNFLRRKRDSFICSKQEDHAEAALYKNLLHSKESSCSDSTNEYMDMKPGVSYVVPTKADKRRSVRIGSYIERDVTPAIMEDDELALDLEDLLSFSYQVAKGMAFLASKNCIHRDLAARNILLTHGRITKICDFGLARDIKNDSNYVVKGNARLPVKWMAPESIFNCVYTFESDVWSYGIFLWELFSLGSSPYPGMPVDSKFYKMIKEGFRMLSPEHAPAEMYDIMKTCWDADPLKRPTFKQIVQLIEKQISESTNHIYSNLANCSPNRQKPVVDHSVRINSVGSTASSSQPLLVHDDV", "test": "Binding affinity to human partial length KIT L576P mutant (Y545 to D952 residues) expressed in bacterial expression system assessed as residual binding level at 10 uM by Kinomescan method relative to control"}, "[12]": {"biological_target": "Tyrosine-protein kinase Srms (Homo sapiens) (UniProt Q9H3Y6)", "test": "Binding affinity to wild-type human partial length SRMS (L208 to P488 residues) expressed in mammalian expression system assessed as residual binding level at 10 uM by Kinomescan method relative to control"}, "[13]": {"biological_target": "Calcium/calmodulin-dependent protein kinase kinase 1 (Homo sapiens) (UniProt Q8N5S9)", "sequence (Q8N5S9 whole entry, looked up, the tested form may be a part)": "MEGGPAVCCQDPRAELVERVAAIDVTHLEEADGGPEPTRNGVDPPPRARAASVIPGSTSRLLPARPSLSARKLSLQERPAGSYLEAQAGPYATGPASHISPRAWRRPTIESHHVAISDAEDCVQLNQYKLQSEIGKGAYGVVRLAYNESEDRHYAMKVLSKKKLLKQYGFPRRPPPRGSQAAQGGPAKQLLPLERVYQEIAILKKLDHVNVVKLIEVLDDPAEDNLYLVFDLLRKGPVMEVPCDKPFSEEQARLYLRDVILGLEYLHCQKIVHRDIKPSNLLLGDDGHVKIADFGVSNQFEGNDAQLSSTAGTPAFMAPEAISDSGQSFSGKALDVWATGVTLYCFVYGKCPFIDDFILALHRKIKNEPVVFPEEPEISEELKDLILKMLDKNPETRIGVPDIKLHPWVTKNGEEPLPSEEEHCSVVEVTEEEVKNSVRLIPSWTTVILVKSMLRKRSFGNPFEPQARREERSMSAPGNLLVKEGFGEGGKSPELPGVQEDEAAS", "test": "Binding affinity to wild-type human partial length CAMKK1 (R65 to E414 residues) expressed in bacterial expression system assessed as residual binding level at 10 uM by Kinomescan method relative to control"}, "[14]": {"biological_target": "Cyclin-dependent kinase 2 homolog (Plasmodium falciparum (isolate 3D7)) (UniProt P61075)", "test": "Binding affinity to wild-type Plasmodium falciparum full length PK5 (M1 to N288 residues) expressed in mammalian expression system assessed as residual binding level at 10 uM by Kinomescan method relative to control"}, "HaCaT": {"tested_on": "HaCaT", "test": "Cytotoxicity against human HaCaT cells assessed as growth inhibition incubated for 48 hrs by Hoechst 33342 staining based assay", "type": "cell-based"}, "[15]": {"tested_on": "Fibroblast growth factor receptor 3 (Homo sapiens), P22607 [G697C]", "test": "Binding affinity to human partial length FGFR3 G697C mutant (R442 to S771 residues) expressed in bacterial expression system assessed as residual binding level at 10 uM by Kinomescan method relative to control"}, "[16]": {"biological_target": "Mitogen-activated protein kinase 11 (Homo sapiens) (UniProt Q15759)", "test": "Binding affinity to wild-type human full length p38-beta (M1 to Q364 residues) expressed in bacterial expression system assessed as residual binding level at 10 uM by Kinomescan method relative to control"}, "[17]": {"biological_target": "Serine/threonine-protein kinase OSR1 (Homo sapiens) (UniProt O95747)", "test": "Binding affinity to wild-type human full length OSR1 (M1 to S527 residues) expressed in mammalian expression system assessed as residual binding level at 10 uM by Kinomescan method relative to control"}, "[18]": {"biological_target": "Epithelial discoidin domain-containing receptor 1 (Homo sapiens) (UniProt Q08345)", "test": "Binding affinity to wild-type human partial length DDR1 (R565 to V876 residues) expressed in bacterial expression system assessed as residual binding level at 10 uM by Kinomescan method relative to control"}, "[19]": {"biological_target": "Death-associated protein kinase 1 (Homo sapiens) (UniProt P53355)", "test": "Binding affinity to wild-type human partial length DAPK1 (M1 to F296 residues) expressed in bacterial expression system assessed as residual binding level at 10 uM by Kinomescan method relative to control"}, "[20]": {"biological_target": "Protein-tyrosine kinase 6 (Homo sapiens) (UniProt Q13882)", "sequence (Q13882 whole entry, looked up, the tested form may be a part)": "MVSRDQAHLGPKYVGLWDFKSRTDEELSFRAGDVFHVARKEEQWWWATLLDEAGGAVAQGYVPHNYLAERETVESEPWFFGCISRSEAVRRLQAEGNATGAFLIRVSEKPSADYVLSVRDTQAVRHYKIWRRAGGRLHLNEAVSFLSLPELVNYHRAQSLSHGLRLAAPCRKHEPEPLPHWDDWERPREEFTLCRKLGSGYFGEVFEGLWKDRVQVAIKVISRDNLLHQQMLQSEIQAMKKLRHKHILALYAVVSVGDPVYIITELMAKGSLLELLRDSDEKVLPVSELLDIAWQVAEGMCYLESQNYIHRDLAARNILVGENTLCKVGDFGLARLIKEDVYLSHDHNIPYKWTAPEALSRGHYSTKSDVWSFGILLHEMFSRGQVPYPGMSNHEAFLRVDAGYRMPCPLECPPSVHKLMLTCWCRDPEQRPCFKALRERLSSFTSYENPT", "test": "Binding affinity to wild-type human partial length BRK (L166 to T451 residues) expressed in bacterial expression system assessed as residual binding level at 10 uM by Kinomescan method relative to control"}, "[21]": {"biological_target": "Serine/threonine-protein kinase RIO2 (Homo sapiens) (UniProt Q9BVS4)", "sequence (Q9BVS4 whole entry, looked up, the tested form may be a part)": "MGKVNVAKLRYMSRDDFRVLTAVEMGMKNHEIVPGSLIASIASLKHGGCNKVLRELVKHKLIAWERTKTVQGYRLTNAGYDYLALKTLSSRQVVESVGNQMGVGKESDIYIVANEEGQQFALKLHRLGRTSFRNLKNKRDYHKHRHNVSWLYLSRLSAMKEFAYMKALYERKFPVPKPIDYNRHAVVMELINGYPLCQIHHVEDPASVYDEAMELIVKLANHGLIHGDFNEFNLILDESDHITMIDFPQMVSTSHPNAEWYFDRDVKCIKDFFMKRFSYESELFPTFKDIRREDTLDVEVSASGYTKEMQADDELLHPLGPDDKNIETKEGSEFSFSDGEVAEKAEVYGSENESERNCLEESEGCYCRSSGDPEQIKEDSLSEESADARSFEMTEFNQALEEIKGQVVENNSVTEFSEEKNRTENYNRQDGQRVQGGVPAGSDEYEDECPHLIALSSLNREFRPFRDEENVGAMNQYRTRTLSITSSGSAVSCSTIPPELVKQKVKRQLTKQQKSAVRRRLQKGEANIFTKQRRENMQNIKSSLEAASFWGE", "test": "Binding affinity to wild-type human partial length RIOK2 (M1 to D313 residues) expressed in mammalian expression system assessed as residual binding level at 10 uM by Kinomescan method relative to control"}, "[22]": {"biological_target": "Serine/threonine-protein kinase RIO1 (Homo sapiens) (UniProt Q9BRS2)", "sequence (Q9BRS2 whole entry, the tested form may be a part)": "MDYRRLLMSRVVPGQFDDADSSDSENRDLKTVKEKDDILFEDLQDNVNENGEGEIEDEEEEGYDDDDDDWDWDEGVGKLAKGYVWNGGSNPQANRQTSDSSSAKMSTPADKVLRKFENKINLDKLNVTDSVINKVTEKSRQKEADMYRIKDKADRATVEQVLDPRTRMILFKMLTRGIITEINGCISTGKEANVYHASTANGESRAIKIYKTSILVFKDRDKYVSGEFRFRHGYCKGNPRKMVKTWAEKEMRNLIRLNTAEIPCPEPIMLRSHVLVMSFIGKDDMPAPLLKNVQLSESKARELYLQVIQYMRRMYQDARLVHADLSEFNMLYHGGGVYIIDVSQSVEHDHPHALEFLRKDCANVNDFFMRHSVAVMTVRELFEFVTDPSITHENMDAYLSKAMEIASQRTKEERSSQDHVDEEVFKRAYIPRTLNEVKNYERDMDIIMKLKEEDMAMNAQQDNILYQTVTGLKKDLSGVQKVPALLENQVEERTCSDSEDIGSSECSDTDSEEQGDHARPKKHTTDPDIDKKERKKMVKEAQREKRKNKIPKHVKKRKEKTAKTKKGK", "test": "Binding affinity to wild-type human full length RIOK1 (M1 to K568 residues) expressed in bacterial expression system assessed as residual binding level at 10 uM by Kinomescan method relative to control"}, "[23]": {"biological_target": "Mitogen-activated protein kinase 14 (Homo sapiens) (UniProt Q16539)", "test": "Binding affinity to wild-type human full length p38-alpha (M1 to S360 residues) expressed in bacterial expression system assessed as residual binding level at 10 uM by Kinomescan method relative to control"}, "[24]": {"tested_on": "Receptor-type tyrosine-protein kinase FLT3 (Homo sapiens), P36888 [UNDEFINED MUTATION]", "sequence (P36888 whole entry, looked up, change not shown)": "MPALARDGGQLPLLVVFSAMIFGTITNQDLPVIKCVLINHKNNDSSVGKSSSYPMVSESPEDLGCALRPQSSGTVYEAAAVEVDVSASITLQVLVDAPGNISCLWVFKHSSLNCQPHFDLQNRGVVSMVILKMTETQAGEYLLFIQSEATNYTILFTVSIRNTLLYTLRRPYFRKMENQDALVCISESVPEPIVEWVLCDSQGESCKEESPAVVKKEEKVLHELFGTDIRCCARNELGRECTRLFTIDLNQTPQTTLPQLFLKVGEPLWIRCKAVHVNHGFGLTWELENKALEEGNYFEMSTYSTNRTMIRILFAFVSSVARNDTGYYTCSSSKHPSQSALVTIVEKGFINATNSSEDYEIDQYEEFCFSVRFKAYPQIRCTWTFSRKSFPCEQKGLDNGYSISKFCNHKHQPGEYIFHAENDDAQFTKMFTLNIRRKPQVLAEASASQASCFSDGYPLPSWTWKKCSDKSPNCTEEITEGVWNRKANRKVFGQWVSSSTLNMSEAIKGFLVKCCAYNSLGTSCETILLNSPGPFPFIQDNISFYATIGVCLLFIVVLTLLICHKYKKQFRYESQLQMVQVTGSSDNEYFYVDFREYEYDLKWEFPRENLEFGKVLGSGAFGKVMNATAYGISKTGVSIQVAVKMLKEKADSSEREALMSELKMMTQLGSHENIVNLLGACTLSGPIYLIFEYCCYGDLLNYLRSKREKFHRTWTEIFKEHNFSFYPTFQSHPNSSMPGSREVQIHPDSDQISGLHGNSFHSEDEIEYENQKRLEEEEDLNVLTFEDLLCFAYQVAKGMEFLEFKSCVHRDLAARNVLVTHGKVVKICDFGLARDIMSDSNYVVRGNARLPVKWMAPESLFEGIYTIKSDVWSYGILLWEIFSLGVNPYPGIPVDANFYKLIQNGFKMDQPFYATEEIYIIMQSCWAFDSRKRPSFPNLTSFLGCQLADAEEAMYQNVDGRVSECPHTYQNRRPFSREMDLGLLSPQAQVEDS", "test": "Binding affinity to human partial length FLT3 ITD mutant expressed in bacterial expression system assessed as residual binding level at 10 uM by Kinomescan method relative to control"}},
  "data": [
    {"molecule": "O=C(Nc1cc(-c2cn(CCNc3c4c(nc5ccccc35)CCCC4)nn2)ccn1)Nc1cccc2c1C1CCCCN1C2=O", "note": "(racemic)", "values": [
      {"measurement": "Activity", "setting": "[1]", "value": 2.6, "unit": "%"},
      {"measurement": "Activity", "setting": "[2]", "value": 66, "unit": "%"},
      {"measurement": "Activity", "setting": "[3]", "value": 8.6, "unit": "%"},
      {"measurement": "Activity", "setting": "[4]", "value": 73, "unit": "%"},
      {"measurement": "Activity", "setting": "[5]", "value": 66, "unit": "%"},
      {"measurement": "Activity", "setting": "[6]", "value": 100, "unit": "%"},
      {"measurement": "Activity", "setting": "[7]", "value": 72, "unit": "%"},
      {"measurement": "Activity", "setting": "[8]", "value": 70, "unit": "%"},
      {"measurement": "Activity", "setting": "[9]", "value": 27, "unit": "%"},
      {"measurement": "Activity", "setting": "[10]", "value": 66, "unit": "%"},
      {"measurement": "Activity", "setting": "[11]", "value": 0, "unit": "%"},
      {"measurement": "Activity", "setting": "[12]", "value": 82, "unit": "%"},
      {"measurement": "Activity", "setting": "[13]", "value": 23, "unit": "%"},
      {"measurement": "Activity", "setting": "[14]", "value": 100, "unit": "%"},
      {"measurement": "IC50", "setting": "HaCaT", "value": 5, "unit": "µM"},
      {"measurement": "Activity", "setting": "[15]", "value": 40, "unit": "%"},
      {"measurement": "Activity", "setting": "[16]", "value": 74, "unit": "%"},
      {"measurement": "Activity", "setting": "[17]", "value": 100, "unit": "%"},
      {"measurement": "Activity", "setting": "[18]", "value": 0.3, "unit": "%"},
      {"measurement": "Activity", "setting": "[19]", "value": 68, "unit": "%"},
      {"measurement": "Activity", "setting": "[20]", "value": 90, "unit": "%"},
      {"measurement": "Activity", "setting": "[21]", "value": 22, "unit": "%"},
      {"measurement": "Activity", "setting": "[22]", "value": 5.2, "unit": "%"},
      {"measurement": "Activity", "setting": "[23]", "value": 91, "unit": "%"},
      {"measurement": "Activity", "setting": "[24]", "value": 1, "unit": "%"}
    ]}
  ]
}
